Experimental data as given in the supplement of paper PMC10132981, “Formate overflow drives toxic folate trapping in MTHFD1 inhibited cancer cells” (Nature Metabolism, 2023).

Key:
SW620 = experiment: cell viability relative to vehicle (resazurin, 96 h); higher = more viable
Experimental: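 SW620 WT or MTHFD2-/- cells were treated for 96 h with a compound dilution series (log10 M) in RPMI with normal or dialysed FBS. Viability was read by resazurin and is given as % of vehicle.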

HCT116 = experiment: cell viability relative to lowest-dose well (resazurin, 96 h); higher = more viable; conditions: RPMI + 10% FBS
Summary of the method: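 Compounds from 10 mM DMSO stocks were dispensed as dilution series onto HCT116 (500 cells/well) or SW620 (1,000 cells/well) cells growing in 384-well plates in 50 µl RPMI, 10% FBS and a metabolite supplement. Plates were incubated 96 h at 37 °C, 5% CO2, then resazurin (10 µg ml^−1) was added and its conversion to resorufin read by fluorescence at 595 nm after 5 h. Viability is shown as percent of the lowest-dose well for independent replicate cultures.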

Cc1c(N2CCN(C)[C@@H](C)C2)ccc2c3c(c(=O)oc12)CN(C(=O)c1ccc(NS(C)(=O)=O)c(OC(F)(F)F)c1)CC3
SW620
Conditions | cell viability [%]
log10 compound concentration (M): -5, supplement / serum: 50μM Hypoxanthine, base medium: RPMI + dialysed FBS | 59.7
log10 compound concentration (M): -5, supplement / serum: 50μM Thymidine + 50μM Hypoxanthine, base medium: RPMI + dialysed FBS | 79
log10 compound concentration (M): -5, supplement / serum: 50μMThymidine, base medium: RPMI + dialysed FBS | 13
log10 compound concentration (M): -5, supplement / serum: No metabolite, base medium: RPMI + dialysed FBS | 11
log10 compound concentration (M): -5, supplement / serum: RPMI + Dialyzed FBS + 50μM Hypoxanthine, base medium: RPMI-1640 | 59.7
log10 compound concentration (M): -5, supplement / serum: RPMI + Dialyzed FBS, base medium: RPMI-1640 | 11
log10 compound concentration (M): -5, supplement / serum: RPMI + Normal FBS, base medium: RPMI-1640 | 78.9
log10 compound concentration (M): -5.47712, supplement / serum: 50μM Hypoxanthine, base medium: RPMI + dialysed FBS | 73.8
log10 compound concentration (M): -5.47712, supplement / serum: 50μM Thymidine + 50μM Hypoxanthine, base medium: RPMI + dialysed FBS | 87.3
log10 compound concentration (M): -5.47712, supplement / serum: 50μMThymidine, base medium: RPMI + dialysed FBS | 16.4
log10 compound concentration (M): -5.47712, supplement / serum: No metabolite, base medium: RPMI + dialysed FBS | 16.8
log10 compound concentration (M): -5.47712, supplement / serum: RPMI + Dialyzed FBS + 50μM Hypoxanthine, base medium: RPMI-1640 | 73.8
log10 compound concentration (M): -5.47712, supplement / serum: RPMI + Dialyzed FBS, base medium: RPMI-1640 | 16.8
log10 compound concentration (M): -5.47712, supplement / serum: RPMI + Normal FBS, base medium: RPMI-1640 | 59.76
log10 compound concentration (M): -5.95424, supplement / serum: 50μM Hypoxanthine, base medium: RPMI + dialysed FBS | 79.2
log10 compound concentration (M): -5.95424, supplement / serum: 50μM Thymidine + 50μM Hypoxanthine, base medium: RPMI + dialysed FBS | 82.2
log10 compound concentration (M): -5.95424, supplement / serum: 50μMThymidine, base medium: RPMI + dialysed FBS | 37.8
log10 compound concentration (M): -5.95424, supplement / serum: No metabolite, base medium: RPMI + dialysed FBS | 37.9
log10 compound concentration (M): -5.95424, supplement / serum: RPMI + Dialyzed FBS + 50μM Hypoxanthine, base medium: RPMI-1640 | 79.2
log10 compound concentration (M): -5.95424, supplement / serum: RPMI + Dialyzed FBS, base medium: RPMI-1640 | 37.9
log10 compound concentration (M): -5.95424, supplement / serum: RPMI + Normal FBS, base medium: RPMI-1640 | 66.4
log10 compound concentration (M): -6.43136, supplement / serum: 50μM Hypoxanthine, base medium: RPMI + dialysed FBS | 78.9
log10 compound concentration (M): -6.43136, supplement / serum: 50μM Thymidine + 50μM Hypoxanthine, base medium: RPMI + dialysed FBS | 89.1
log10 compound concentration (M): -6.43136, supplement / serum: 50μMThymidine, base medium: RPMI + dialysed FBS | 64.5
log10 compound concentration (M): -6.43136, supplement / serum: No metabolite, base medium: RPMI + dialysed FBS | 67.9
log10 compound concentration (M): -6.43136, supplement / serum: RPMI + Dialyzed FBS + 50μM Hypoxanthine, base medium: RPMI-1640 | 78.9
log10 compound concentration (M): -6.43136, supplement / serum: RPMI + Dialyzed FBS, base medium: RPMI-1640 | 67.9
log10 compound concentration (M): -6.43136, supplement / serum: RPMI + Normal FBS, base medium: RPMI-1640 | 74.7
log10 compound concentration (M): -6.90849, supplement / serum: 50μM Hypoxanthine, base medium: RPMI + dialysed FBS | 85.8
log10 compound concentration (M): -6.90849, supplement / serum: 50μM Thymidine + 50μM Hypoxanthine, base medium: RPMI + dialysed FBS | 72.8
log10 compound concentration (M): -6.90849, supplement / serum: 50μMThymidine, base medium: RPMI + dialysed FBS | 72.2
log10 compound concentration (M): -6.90849, supplement / serum: No metabolite, base medium: RPMI + dialysed FBS | 84.5
log10 compound concentration (M): -6.90849, supplement / serum: RPMI + Dialyzed FBS + 50μM Hypoxanthine, base medium: RPMI-1640 | 85.8
log10 compound concentration (M): -6.90849, supplement / serum: RPMI + Dialyzed FBS, base medium: RPMI-1640 | 84.5
log10 compound concentration (M): -6.90849, supplement / serum: RPMI + Normal FBS, base medium: RPMI-1640 | 76.6
log10 compound concentration (M): -7.38561, supplement / serum: 50μM Hypoxanthine, base medium: RPMI + dialysed FBS | 68.9
log10 compound concentration (M): -7.38561, supplement / serum: 50μM Thymidine + 50μM Hypoxanthine, base medium: RPMI + dialysed FBS | 79.5
log10 compound concentration (M): -7.38561, supplement / serum: 50μMThymidine, base medium: RPMI + dialysed FBS | 65.2
log10 compound concentration (M): -7.38561, supplement / serum: No metabolite, base medium: RPMI + dialysed FBS | 66.8
log10 compound concentration (M): -7.38561, supplement / serum: RPMI + Dialyzed FBS + 50μM Hypoxanthine, base medium: RPMI-1640 | 68.9
log10 compound concentration (M): -7.38561, supplement / serum: RPMI + Dialyzed FBS, base medium: RPMI-1640 | 66.8
log10 compound concentration (M): -7.38561, supplement / serum: RPMI + Normal FBS, base medium: RPMI-1640 | 75
log10 compound concentration (M): -7.86273, supplement / serum: 50μM Hypoxanthine, base medium: RPMI + dialysed FBS | 83.7
log10 compound concentration (M): -7.86273, supplement / serum: 50μM Thymidine + 50μM Hypoxanthine, base medium: RPMI + dialysed FBS | 83.3
log10 compound concentration (M): -7.86273, supplement / serum: 50μMThymidine, base medium: RPMI + dialysed FBS | 70.4
log10 compound concentration (M): -7.86273, supplement / serum: No metabolite, base medium: RPMI + dialysed FBS | 75.1
log10 compound concentration (M): -7.86273, supplement / serum: RPMI + Dialyzed FBS + 50μM Hypoxanthine, base medium: RPMI-1640 | 83.7
log10 compound concentration (M): -7.86273, supplement / serum: RPMI + Dialyzed FBS, base medium: RPMI-1640 | 75.1
log10 compound concentration (M): -7.86273, supplement / serum: RPMI + Normal FBS, base medium: RPMI-1640 | 73
log10 compound concentration (M): -8.33985, supplement / serum: 50μM Hypoxanthine, base medium: RPMI + dialysed FBS | 84.3
log10 compound concentration (M): -8.33985, supplement / serum: 50μM Thymidine + 50μM Hypoxanthine, base medium: RPMI + dialysed FBS | 76.1
log10 compound concentration (M): -8.33985, supplement / serum: 50μMThymidine, base medium: RPMI + dialysed FBS | 78.4
log10 compound concentration (M): -8.33985, supplement / serum: No metabolite, base medium: RPMI + dialysed FBS | 86.2
log10 compound concentration (M): -8.33985, supplement / serum: RPMI + Dialyzed FBS + 50μM Hypoxanthine, base medium: RPMI-1640 | 84.3
log10 compound concentration (M): -8.33985, supplement / serum: RPMI + Dialyzed FBS, base medium: RPMI-1640 | 86.2
log10 compound concentration (M): -8.33985, supplement / serum: RPMI + Normal FBS, base medium: RPMI-1640 | 92
log10 compound concentration (M): -8.81697, supplement / serum: 50μM Hypoxanthine, base medium: RPMI + dialysed FBS | 83.9
log10 compound concentration (M): -8.81697, supplement / serum: 50μM Thymidine + 50μM Hypoxanthine, base medium: RPMI + dialysed FBS | 69.4
log10 compound concentration (M): -8.81697, supplement / serum: 50μMThymidine, base medium: RPMI + dialysed FBS | 77.4
log10 compound concentration (M): -8.81697, supplement / serum: No metabolite, base medium: RPMI + dialysed FBS | 70.8
log10 compound concentration (M): -8.81697, supplement / serum: RPMI + Dialyzed FBS + 50μM Hypoxanthine, base medium: RPMI-1640 | 83.9
log10 compound concentration (M): -8.81697, supplement / serum: RPMI + Dialyzed FBS, base medium: RPMI-1640 | 70.8
log10 compound concentration (M): -8.81697, supplement / serum: RPMI + Normal FBS, base medium: RPMI-1640 | 75.5
log10 compound concentration (M): -9.29409, supplement / serum: 50μM Hypoxanthine, base medium: RPMI + dialysed FBS | 77.29
log10 compound concentration (M): -9.29409, supplement / serum: 50μM Thymidine + 50μM Hypoxanthine, base medium: RPMI + dialysed FBS | 86.3
log10 compound concentration (M): -9.29409, supplement / serum: 50μMThymidine, base medium: RPMI + dialysed FBS | 105
log10 compound concentration (M): -9.29409, supplement / serum: No metabolite, base medium: RPMI + dialysed FBS | 84.9
log10 compound concentration (M): -9.29409, supplement / serum: RPMI + Dialyzed FBS + 50μM Hypoxanthine, base medium: RPMI-1640 | 77.29
log10 compound concentration (M): -9.29409, supplement / serum: RPMI + Dialyzed FBS, base medium: RPMI-1640 | 84.9
log10 compound concentration (M): -9.29409, supplement / serum: RPMI + Normal FBS, base medium: RPMI-1640 | 77
log10 compound concentration (M): -9.77121, supplement / serum: 50μM Hypoxanthine, base medium: RPMI + dialysed FBS | 85.8
log10 compound concentration (M): -9.77121, supplement / serum: 50μM Thymidine + 50μM Hypoxanthine, base medium: RPMI + dialysed FBS | 86.4
log10 compound concentration (M): -9.77121, supplement / serum: 50μMThymidine, base medium: RPMI + dialysed FBS | 84.3
log10 compound concentration (M): -9.77121, supplement / serum: No metabolite, base medium: RPMI + dialysed FBS | 77
log10 compound concentration (M): -9.77121, supplement / serum: RPMI + Dialyzed FBS + 50μM Hypoxanthine, base medium: RPMI-1640 | 85.8
log10 compound concentration (M): -9.77121, supplement / serum: RPMI + Dialyzed FBS, base medium: RPMI-1640 | 77
log10 compound concentration (M): -9.77121, supplement / serum: RPMI + Normal FBS, base medium: RPMI-1640 | 75.8

O=c1[nH]cc(F)c(=O)[nH]1 [5-fluorouracil]
cell viability [%], HCT116
Conditions | 0.0001 M | 0.01 µM | 0.0278 µM | 0.0774 µM | 0.215 µM | 0.599 µM | 1.67 µM | 4.64 µM | 12.9 µM | 35.9 µM
metabolite supplement: 50uM thymidine | 4.77 | 98.1 | 96.2 | 96.3 | 97.9 | 91.9 | 63.7 | 24.6 | 11.8 | 6.83
metabolite supplement: 50uM thymidine + 250uM hypoxanthine | 5.93 | 106 | 104 | 105 | 106 | 103 | 84 | 39.7 | 15.7 | 8.5
metabolite supplement: 250uM hypoxanthine | 4.9 | 100 | 96.9 | 97.3 | 96.8 | 90.6 | 78.4 | 33.2 | 13 | 7.4
metabolite supplement: vehicle | 4.53 | 102 | 102 | 101 | 99.6 | 94.6 | 65 | 22.9 | 11.1 | 6.67
